Laboratory results published in ChEMBL document CHEMBL1136409, “Design of novel N-(2,4-dioxo-1,2,3,4-tetrahydro-thieno[3,2-d]pyrimidin-7-yl)-guanidines as thymidine phosphorylase inhibitors, and flexible docking to a homology model” (Bioorg Med Chem Lett, 2003).

Target: T1, Thymidine phosphorylase (Homo sapiens, UniProt P19971)
T1 sequence (P19971 whole entry): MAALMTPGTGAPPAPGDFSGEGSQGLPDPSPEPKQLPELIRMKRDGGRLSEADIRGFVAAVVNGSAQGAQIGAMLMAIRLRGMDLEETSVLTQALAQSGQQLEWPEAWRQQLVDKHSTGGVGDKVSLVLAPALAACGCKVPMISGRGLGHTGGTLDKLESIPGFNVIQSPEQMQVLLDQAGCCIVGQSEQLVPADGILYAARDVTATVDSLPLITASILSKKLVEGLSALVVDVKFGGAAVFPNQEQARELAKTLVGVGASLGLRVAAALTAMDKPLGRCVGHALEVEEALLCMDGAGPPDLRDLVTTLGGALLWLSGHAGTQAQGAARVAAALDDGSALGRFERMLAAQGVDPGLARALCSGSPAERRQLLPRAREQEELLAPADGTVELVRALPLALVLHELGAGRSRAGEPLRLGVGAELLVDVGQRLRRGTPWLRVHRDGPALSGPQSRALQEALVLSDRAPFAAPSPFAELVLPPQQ
Assay: Binding affinity towards recombinant thymidine phosphorylase TP

| Ki [µM] | SMILES |
| --- | --- |
| > 300 | Nc1cc2[nH]c(=O)[nH]c(=O)c2s1 |
| > 2400 | N=C(N)Nc1cc2[nH]c(=O)[nH]c(=O)c2s1 |
| > 600 | Nc1csc2c(=O)[nH]c(=O)[nH]c12 |
